Read-outs that look alike come from different tables or passages of the source.
Test system: rat liver tissue
Method: From the nucleic acid hybridization data, a prediction score is calculated for that sample and compared to a reference score from a toxicity reference database according to the following equation. The sample prediction score=ΣwiR^FC^i. “i” is the index number for each gene in a gene expression profile to be evaluated. “wi” is the PLS weight (or PLS score, see Table 2 for an exemplary list of PLS scores for a general kidney toxicity model) for each gene. “R^FC^i” is the RMA fold-change value for the i^th gene, as determined from a normalized RMA matrix of gene expression data from the sample (described above). The PLS weight multiplied by the RMA fold-change value gives a gene regulation score for each gene, and the regulation scores for all the individual genes are added to give a prediction score for the sample.
To establish a toxicity prediction score cut-off value for a toxicity model, the true-positive and false positive rates for each possible score cut-off value are computed, using the scores from all tox and non-tox samples in the training set. This generates an ROC curve, which we use to set the cut-off score at the point on the ROC curve corresponding to ˜5% false positive rate. For example, in a kidney toxicity model of Table 2, a cut-off prediction score is about 0.318.
The conversion algorithm was tested using the liver toxicity model described in U.S. Provisional Application Ser. No. 60/559,949 and herein incorporated by reference.
The first step to using a conversion algorithm is to map microarray fragments. The RGU34 A microarray fragments which comprise the liver toxicity model were mapped to the RAE2.0 microarray. The liver toxicity model is based on 1,100 Affymetrix GeneChip® RGU34 A microarray fragments. […] See Affymetrix's “User's Guide to Product Comparison Spreadsheets” which is herein incorporated by reference.
Once the microarray fragments are mapped, training samples are selected to calculate the conversion model weights. The inventors searched Gene Logic's ToxExpress® reference database, a database which is built on the Affymetrix RGU34A platform, for samples that covered a large amount of interquartile range with respect to signal intensity. […] The samples maximized Ei(Max(Xij)−Min(Xij)), where i indexes genes and j indexes samples.
For this reason, a training set consisting of 100 compounds and vehicles from rat liver tissue was selected.
The 100 training samples were used to train the weights in the conversion algorithm. This step is important because it provides for the quantitative aspect of the conversion. The weight training was performed based on a multiple regression analysis with probe values as the independent variables and RMA expression as the sum of the dependent variables.
Test samples were evaluated using the trained conversion algorithm. The multiple regression model was built on the 11 perfect match probe intensities and generated a predicted RGU34 expression value from a weighted sum of RAE 2.0 probe values. Each test array was scaled to an average probe intensity of 10 (log scale). The conversion algorithm used is given as:
Yi^RGU34=βio+Σβij LOG(Xij^RAE2.0/S)

[1] = RAE2.0 converted RMA data, liver predictive model
[2] = RGU34 RMA data, liver predictive model

Row | Structure (SMILES) | number of test samples predicted as toxic out of the total number of samples for that compound [1] | number of test samples predicted as toxic out of the total number of samples for that compound [2] | number of test samples predicted as toxic out of the total number of samples for that compound (rat, in vivo)
1 | CN(C)CCC=C1c2ccccc2CCc2ccccc21 [Amitryptilene] | 2/2 | 1/2 | –
2 | CN(C)CCC(c1ccc(Cl)cc1)c1ccccn1 (stereo not drawn) [Chlorpheniramine, chlorpheniramine] | – | – | 0/3
3 | CCOC(=O)C(C)(C)Oc1ccc(Cl)cc1 [Clofibrate] | – | – | 0/3
4 | O=C(O)c1cc(-c2ccc(F)cc2F)ccc1O [Diflunisal, diflunisal] | – | – | 2/3
5 | C[C@]12CC[C@@H]3c4ccc(O)cc4CC[C@H]3[C@@H]1CC[C@@H]2O [Estradiol, estradiol] | – | – | 3/3
6 | CCSCC[C@H](N)C(=O)O [Ethionine, ethionine] | 3/3 | 3/3 | –
7 | CCC1(c2ccccc2)C(=O)NC(=O)NC1=O [Phenobarbital, phenobarbital] | 3/3 | 3/3 | –
8 | CN(CCOc1ccc(CC2SC(=O)NC2=O)cc1)c1ccccn1 (stereo not drawn) [Rosiglitazone, rosiglitazone] | – | – | 0/3
9 | [H]/N=C(/N)N[C@H]1[C@H](O)[C@@H](O)[C@H](O[C@@H]2O[C@@H](C)[C@](O)(C=O)[C@H]2O[C@@H]2O[C@@H](CO)[C@H](O)[C@@H](O)[C@@H]2NC)[C@@H](N/C(N)=N\[H])[C@@H]1O [Streptomycin, streptomycin] | – | – | 0/3
